Measurements as given in publication PMC5084681, “Ephenidine: A new psychoactive agent with ketamine-like NMDA receptor antagonist properties” (Neuropharmacology, 2017).
Values joined by “and” are separate entries in the source; they are usually repeats but may differ in a detail not shown here. Identical values can stand only once. “Also recorded” adds a separate entry of the source. Like-named read-outs stand apart in the source and are kept apart here.

How the values were obtained:
[1] = system: NMDA receptor-mediated fEPSP; experiment: Extracellular recording of NMDA receptor-mediated fEPSP in CA1 of hippocampal slices; format: cell-based, rat; details: for time-course of reduction of NMDA receptor mediated fEPSP: 1 and 10 μM; for inhibition of NMDA receptor mediated fEPSP: after 4 h superfusion
Procedure: (§1) Male Wistar and Sprague-Dawley rats (Crl:Wi; Charles River, UK) aged 3–10 weeks old were killed by dislocation of cervical vertebrae according to Schedule 1 of the United Kingdom (Scientific Procedures) Act of 1986. Brains were rapidly removed and put in artificial cerebrospinal fluid (aCSF) consisting of 124 mM NaCl, 26 mM NaHCO3, 3 mM KCl, 1.4 mM NaH2PO4, 1 mM MgSO4, 2 mM CaCl2, and 10 mM D-glucose and continuously oxygenated with 95% O2 and 5% CO2. Parasagittal brain slices, 400 μm thick, of the hippocampus were removed, stored and placed in a submerged recording chamber at 28–30 °C.
(§2) Recordings of extracellular synaptic activity were made ([Ceolin et al., 2012], [Volianskis et al., 2013]) using a bipolar electrode to deliver stimuli (0.03 Hz) to the Schaffer collateral pathway to evoke field excitatory postsynaptic potentials (fEPSPs) recorded from a glass microelectrode (3–6 MΩ) in the stratum radiatum of area CA1. […] In initial experiments after 30 min of stable control responses, the remaining response was challenged with 30 μM ephenidine. Using this protocol for isolating NMDA-fEPSPs (see Fig. 2A), 1 and 10 μM ephenidine or 1 and 10 μM D-2-amino-5-phosphonopentanoic acid (D-AP5) were added to the perfusate for up to 4 h while recording the amplitude and area of the NMDA-fEPSP on-line using WinLTP ([Anderson and Collingridge, 2007]). Single exponential curves were fitted to show likely half-times and minimum plateau responses achieved with each concentration used. For selectivity experiments, 50 μM picrotoxin and 1 μM CGP 55845 were added to the solution from the beginning of the experiment and 50 μM ephenidine was superfused for 60 min in the absence of other pharmacological agent.

[2] = system: NMDA receptor-mediated EPSCs; experiment: Whole-cell patch clamp of NMDA receptor-mediated EPSCs in CA1 pyramidal cells; format: cell-based, rat
Procedure: as §1
Whole-cell patch clamp recordings of excitatory postsynaptic currents (EPSCs) were made from CA1 pyramidal cells under visual guidance with IR-DIC optics as described by [Park et al. (2016)]. The recording chamber was maintained at 32 °C. Borosilicate glass pipettes were used with a resistance of 3–5 MΩ. The internal solution comprised (mM): 8 NaCl, 130 CsMeSO3, 10 HEPES, 0.5 EGTA, 4 Mg-ATP, 0.3 Na3-GTP, 5 QX-314 and 0.1 spermine. The pH was adjusted to 7.2–7.3 with CsOH and osmolarity to 285–290 mOsm. Peak amplitude of EPSCs was measured while varying holding voltage from −60 mV to +60 mV and stimulating the Schaffer collateral pathway at a frequency of 0.1 Hz at constant intensity. Five consecutive responses obtained at each holding potential were averaged to plot the current-voltage relationship. Currents through NMDA receptors were pharmacologically isolated using 10 μM NBQX, 50 μM picrotoxin and 20 μM (+)-bicuculline. In initial experiments, MgSO4 was omitted from the bath solution for at least 30 min before patching and replaced with 30 μM ephenidine, 10 μM ketamine, 30 μM D-AP5 or 2 mM MgSO4. Rectification indices were calculated from the EPSC values at +40 mV and −40 mV. In subsequent experiments, slices were incubated in aCSF with no added MgSO4, before transferring to the recording chamber to obtain control current-voltage plots from NMDA-EPSCs as above before adding 2 mM MgSO4 or 30 μM ephenidine for 30 min and repeating the current-voltage protocol. Representative sample traces are shown from typical experiments, and stimulus artifacts blanked for clarity. Data were normalized to the baseline preceding drug application, and are presented as mean ± SEM and compared using one-way ANOVA and level of significance is denoted as *** for p values < 0.001.

[3] = target: MK-801 binding site of the NMDA receptor; set-up: method as in Wallach et al., 2016; details: same assay, ref Wallach et al., 2016, cited from earlier work; for Ki: read-out: Ki, (+)-[3H]-MK-801 displacement
[4] = system: AMPA receptor-mediated fEPSP; experiment: Extracellular recording of AMPA receptor-mediated fEPSP in CA1 of hippocampal slices; format: cell-based, rat
Procedure: as §1
as §2, with “Single exponential curves were fitted to show likely half-times and minimum plateau responses achieved with each concentration used. For selectivity experiments, 50 μM picrotoxin and 1 μM CGP 55845 were added to the solution from the beginning of the experiment and 50 μM ephenidine was superfused for 60 min in the absence of other pharmacological agent.” left out

[5] = target: MK-801 binding site of the NMDA receptor; experiment: (+)-[3H]-MK-801 displacement binding in whole rat brain homogenate
Procedure: Termination of reaction was performed via vacuum filtration using a 24 well cell harvester (Brandel, Gaithersburg, MD) over presoaked GF/B glass fiber filters (Brandel, Gaithersburg, MD). Filters were washed with room temperature assay buffer (3 × 5 mL). Trapped tritium was measured via liquid scintillation counting, using a Beckman LS 6500 multipurpose scintillation counter (BeckmanCoulter, USA) at 57% efficiency. IC50 values were determined in Graphpad Prism 5.0 using non-linear regression with log-concentration plotted against percent specific binding. […] Ki values were calculated using the equation of [Cheng and Prusoff (1973)]. […] Protein concentration was determined via the Bradford method using Coomassie protein assay reagent (Sigma, USA) with rat albumin (Sigma, USA) as standard. Experiments were performed in duplicate and repeated three or four times.

[6] = target: dopamine transporter (DAT) (Homo sapiens, UniProt Q01959); experiment: NIMH PDSP receptor binding assay, dopamine transporter
Procedure: (§3) Displacement by ephenidine in binding assays of a further 45 CNS receptors was performed through the National Institute of Mental Health Psychoactive Drug Screening Program (NIMH PDSP). Briefly ephenidine, dissolved in DMSO, was subject to a primary screen at a concentration of 10 μM (see Suppl. 2 for radioligands used). […] Additional experimental details are available in the NIMH PDSP protocol book ([Roth et al., 2013]).

[7] = target: noradrenaline transporter (NET) (Homo sapiens, UniProt P23975); experiment: NIMH PDSP receptor binding assay, noradrenaline transporter
Procedure: as §3

sigma 1 binding site = sigma 1 binding site (Homo sapiens, UniProt Q99720); experiment: NIMH PDSP receptor binding assay, sigma 1; details: affinity for sigma 1 binding site, NIMH PDSP secondary assay
Procedure: as §3

sigma 2 binding site = sigma 2 binding site (Homo sapiens, UniProt Q5BJF2); experiment: NIMH PDSP receptor binding assay, sigma 2
Procedure: as §3

[8] = system: remaining 41 CNS receptors (Supplement 2); experiment: NIMH PDSP primary binding screen at 10 μM, remaining 41 receptors
Procedure: as §3

[9] = system: long-term potentiation (LTP) in CA1; experiment: LTP of fEPSPs in Schaffer collateral-CA1 pathway induced by theta burst stimulation; format: cell-based, rat
Procedure: as §1
To study the effect of ephenidine on long-term potentiation (LTP), slices were incubated in control aCSF or aCSF containing 10 μM ephenidine for at least 2 h before transferring to the recording chamber, fEPSPs were recorded as above without addition of other agents. After obtaining stable responses, a theta burst stimulation (TBS; [Park et al., 2016]) was applied to the Schaffer collateral pathway and the amplitude of the fEPSP in CA1 monitored for at least a further 40 min.

PCP binding site = system: PCP binding site; set-up: method as in Thurkauf et al., 1989; details: ref Thurkauf et al., 1989; cited from earlier work

sigma 1 binding site, sequence (Q99720 whole entry): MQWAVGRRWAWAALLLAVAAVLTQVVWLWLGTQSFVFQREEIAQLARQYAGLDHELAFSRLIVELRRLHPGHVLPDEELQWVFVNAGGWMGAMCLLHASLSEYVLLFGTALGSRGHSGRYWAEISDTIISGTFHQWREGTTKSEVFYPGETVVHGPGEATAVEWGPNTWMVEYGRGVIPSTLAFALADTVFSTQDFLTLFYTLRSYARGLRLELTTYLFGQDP
noradrenaline transporter (NET), sequence (P23975 whole entry): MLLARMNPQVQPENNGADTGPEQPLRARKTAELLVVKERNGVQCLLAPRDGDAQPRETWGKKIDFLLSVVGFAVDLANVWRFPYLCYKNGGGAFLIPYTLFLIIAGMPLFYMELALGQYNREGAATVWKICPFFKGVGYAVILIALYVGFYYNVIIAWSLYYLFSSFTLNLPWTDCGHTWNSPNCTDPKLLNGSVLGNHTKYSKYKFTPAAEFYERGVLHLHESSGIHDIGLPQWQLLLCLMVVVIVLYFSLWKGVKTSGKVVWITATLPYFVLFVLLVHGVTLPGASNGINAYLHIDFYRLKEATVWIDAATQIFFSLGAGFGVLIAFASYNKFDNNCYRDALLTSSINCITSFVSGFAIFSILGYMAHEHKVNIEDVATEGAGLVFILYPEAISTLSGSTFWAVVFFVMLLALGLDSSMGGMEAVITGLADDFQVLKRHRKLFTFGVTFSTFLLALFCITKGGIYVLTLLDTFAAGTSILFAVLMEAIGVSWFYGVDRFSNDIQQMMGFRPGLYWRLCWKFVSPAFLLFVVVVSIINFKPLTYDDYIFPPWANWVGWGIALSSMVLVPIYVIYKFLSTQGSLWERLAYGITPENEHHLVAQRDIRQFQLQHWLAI
sigma 2 binding site, sequence (Q5BJF2 whole entry): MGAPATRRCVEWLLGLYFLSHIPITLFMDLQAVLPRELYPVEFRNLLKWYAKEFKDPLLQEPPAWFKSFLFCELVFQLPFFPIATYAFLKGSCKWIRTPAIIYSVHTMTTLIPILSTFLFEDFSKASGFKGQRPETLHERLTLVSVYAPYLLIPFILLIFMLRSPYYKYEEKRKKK
dopamine transporter (DAT), sequence (Q01959 whole entry, species assumed): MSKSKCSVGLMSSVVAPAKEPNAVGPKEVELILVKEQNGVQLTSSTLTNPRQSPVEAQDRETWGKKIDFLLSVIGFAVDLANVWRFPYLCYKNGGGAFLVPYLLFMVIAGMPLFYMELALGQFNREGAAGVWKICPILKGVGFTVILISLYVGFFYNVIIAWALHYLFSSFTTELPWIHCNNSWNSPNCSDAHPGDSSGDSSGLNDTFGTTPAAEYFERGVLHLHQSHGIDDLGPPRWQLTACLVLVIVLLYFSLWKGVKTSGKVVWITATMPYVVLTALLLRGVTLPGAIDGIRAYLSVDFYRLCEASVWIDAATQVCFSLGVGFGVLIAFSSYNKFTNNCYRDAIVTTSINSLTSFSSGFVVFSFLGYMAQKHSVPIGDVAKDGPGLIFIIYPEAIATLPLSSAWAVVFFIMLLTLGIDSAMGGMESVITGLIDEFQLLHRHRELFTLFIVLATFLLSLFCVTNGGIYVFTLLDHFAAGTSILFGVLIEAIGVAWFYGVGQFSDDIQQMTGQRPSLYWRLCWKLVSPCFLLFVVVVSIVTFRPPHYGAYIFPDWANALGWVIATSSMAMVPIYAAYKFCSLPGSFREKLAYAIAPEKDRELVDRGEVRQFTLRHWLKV

For `N[C@H](CCCP(=O)(O)O)C(=O)O` [D-AP5, D-2-amino-5-phosphonopentanoic acid, reference compound], the “time-course of reduction of NMDA receptor mediated fEPSP” value [1] was “rapid reduction”, the “rectification index (RI; +40 mV/−40 mV)” value ([2]; 30 μM D-AP5, no added Mg2+) was 0.8 ± 0.01 and the “effect on NMDA-EPSC current-voltage relationship” value ([2]; 30 μM, no added Mg2+) was “reduced both inward and outward current”.

For `CNC1(c2ccccc2Cl)CCCCC1=O` (stereo not shown) [ketamine], the “time-course of reduction of NMDA receptor mediated fEPSP” value [1] is listed as “slower reduction”, the “rectification index (RI; +40 mV/−40 mV)” value ([2]; 10 μM, no added Mg2+) is listed as 2.0 ± 0.2 and the Ki ([3]; listed as Ketamine) is listed as 324 ± 19.2 nM. The IC50 ([3]; read-out: IC50, (+)-[3H]-MK-801 displacement) was 508 ± 30.1 nM and the Ki [3] was 324 ± 19 nM.

For `NS(=O)(=O)c1cccc2c1c([N+](=O)[O-])cc1nc(O)c(O)nc12` [NBQX, reference compound], the “effect on AMPA receptor mediated fEPSP” value ([4]; 3 μM) was “rapid block of the remaining fEPSP”.

In the case of `CCNC(Cc1ccccc1)c1ccccc1` (stereo not shown) [ephenidine, N-Ethyl-1,2-diphenylethanamine], the IC50 ([5]; 1 nM (+)-[3H]-MK-801) is reported as 104 ± 5.9 nM, the Ki ([5]; 1 nM (+)-[3H]-MK-801, Cheng-Prusoff) is reported as 66 nM and 66.4 nM and the Ki [6] is reported as 379 nM. For the same molecule, the Ki [7] was 841 nM, the Ki (sigma 1 binding site) was 629 nM and 628 nM and the Ki (sigma 2 binding site) was 721 nM. The “displacement in primary screen” value [8] was “less than 50%”, the “inhibition of NMDA receptor mediated fEPSP” value ([1]; 1 μM) was 25% and the “inhibition of NMDA receptor mediated fEPSP” value ([1]; 10 μM) was “near maximal inhibition; also recorded: near maximal effect”. For the same molecule, the “effect on NMDA receptor mediated fEPSP” value ([1]; 30 μM) was “slowly reduced”, the “effect on AMPA receptor mediated fEPSP (peak amplitude)” value ([4]; 50 μM, 1 h superfusion) was “lack of effect; also recorded: did not affect; also recorded: no significant reduction” and the “block of NMDA receptor-mediated EPSCs” value ([2]; 10 μM) was “blocked NMDA receptor-mediated EPSCs in a highly voltage-dependent manner”. The “rectification index (RI; +40 mV/−40 mV)” value ([2]; 30 μM ephenidine, no added Mg2+) was 3.6 ± 0.3, the “effect on NMDA-EPSC current-voltage relationship” value ([2]; 30 μM, no added Mg2+) was “reduction of inward current at negative holding potentials” and the “mean NMDA-EPSC current at +40 mV” value ([2]; 30 μM, no added Mg2+, holding potential +40 mV) was 133 ± 12 pA. The “mean NMDA-EPSC current at −40 mV” value ([2]; 30 μM, no added Mg2+, holding potential −40 mV) was −48 ± 8 pA, the “effect on induction of LTP” value ([9]; 10 μM) was “blocked the induction of long term potentiation (LTP); also recorded: completely blocked the induction of LTP” and the “effect on induction of LTP” value ([9]; 30 μM) was “completely blocked the induction of LTP”. For the same molecule, the “affinity for the PCP binding site” value (PCP binding site) was 257 nM.
